Values after ≈ are worked out from the molar mass of the structure shown. One block for each compound: values may come before it.
Assays:
[1] = system: Streptococcus gordonii strain DL1; experiment: MIC assay, S. gordonii; format: cell-based; settings: 5% CO2, 37° C., 20-24 hours
From the text: (§1) Streptococcus mutans wild-type strain UA159 was provided by Dr. Bettina Buttaro from Temple University Medical School, Philadelphia, Pa. Streptococcus gordonii strain DL1 and Streptococcus sanguinis strain 10904 were provided by Dr. Robert G. Quivey from University of Rochester Medical School. Streptococcus gordonii strain DL1 may be obtained from the American Type Culture Collection under accession #49818. Streptococcus sanguinis strain 10904 may be obtained from the National Collection of Type Cultures under accession #10904. Bacteria were routinely maintained on in Bacto™ Todd-Hewitt (TH) agar plates and liquid cultures were grown in Bacto™ Todd-Hewitt broth (THB). For growth of biofilms, THB was supplemented with 0.1% sucrose. Incubation was stagnant at 37° C. Bacterial strains Methicillin-Resistant Staphylococcus aureus HPV107, Staphylococcus epidermidis Fussel [NCTC 11047, R. Hugh 2466], Streptococcus sobrinus SL1 [CCM 6070, CNCTC 9/89], Enterococcus faecalis NCTC 775 [DSM 20478, JCM 8726, NCDO 581, Tissier], Pseudomonas aeruginosa [CCEB 481, MDB strain BU 277, NCIB 8295, NCPPB 1965, NCTC 10332, NRRL B-771, R. Hugh 815], Serratia marcescens BS 303 [CDC 813-60, NCIB 9155, NCTC 10211], and Acinetobacter baumannii 2208 [81, DSM 6974] were purchased from the American Type Culture Collection.
(§2) Stock solutions of compounds (10 mM) were serial diluted (200 μL, 100 μL, 50 μL, 10 μL, and 2 μL) in THB media in flat-bottom 96-well microtiter plates (total volume 100 μL). Bacterial cultures were grown in brain heart infusion or nutrient broth media to mid-exponential phase, back diluted to an OD of 0.1 and then inoculated into the 96-well plate to reach a final volume of 200 μL. Plates were inoculated at 37° C. in 5% CO2 for 20-24 hours upon which time wells were evaluated visually for bacterial growth and/or the wells' OD630 was evaluated via spectrophotometer. […] DMSO controls corresponding to each test concentration were performed. Biological triplicates were performed to confirm results.

[2] = system: Streptococcus sanguinis strain 10904; experiment: MIC assay, S. sanguinis; format: cell-based; settings: 5% CO2, 37° C., 20-24 hours
From the text: as §1, §2

[3] = system: Streptococcus mutans wild-type strain UA159; experiment: MIC assay, S. mutans; format: cell-based; settings: planktonic, 5% CO2, 37° C., 20-24 hours
From the text: as §1, §2

[4] = system: S. mutans; experiment: S. mutans MBC assay; format: cell-based, Streptococcus mutans; settings: for MBC: Streptococcus mutans, 3-log reduction in CFU count (99.9% bacterial death)
Description: MIC assay was performed (above) and each well diluted (log-dilution) into a new 96-well microtiter plate. Five μL from each dilution was then plated on THB agar plates and incubated for 24 hours. Colony counts were performed to determine MBC which is defined as the concentration which there is a 3-log reduction in CFU count which corresponds to 99.9% bacterial death.

[5] = system: red blood cells (mechanically defibrinated sheep blood); experiment: Hemolysis assay (cell lysis); format: cell-based; parameters: red blood cell lysis: unit not given here; settings: 1 hour, 37° C.
Description: The effects of the compounds described herein to lyse cells was evaluated in this example. Hemolysis assays were performed on mechanically defibrinated sheep blood (Hemostat Labs: DSB030). 1.5 mL of blood was placed into a microcentrifuge tube and centrifuged at 10,000 rpm for ten minutes. The supernatant was removed and then the cells were resuspended with 1 mL of phosphate-buffered saline (PBS). The suspension was centrifuged as previously, the supernatant was removed, and cells were resuspended two more times. The final cell suspension was diluted twentyfold with PBS. The twentyfold suspension dilution was then aliquoted into microcentrifuge tubes containing compound serially diluted in PBS. TritonX (1% by volume) served as a positive control (100% lysis marker) and sterile PBS served as a negative control (0% lysis marker). Samples were then placed in an incubator at 37° C. and shaken at 200 rpm. After 1 hour, the samples were centrifuged at 10,000 rpm for ten minutes. The absorbance of the supernatant was measured with a UV spectrometer at a 540 nm wavelength. See, e.g., Peng, Chem. Comm. 2011, 47, 4896-4898.

[6] = Concentration 500 μM, TritonX 100% lysis, PBS 0% lysis

- MIC [1]: > 250 µM
- MIC [2]: > 250 µM
- MIC [3]: > 250 µM
SMILES: CC(C)c1cc(-c2c(O)ccc3cc(Br)ccc23)cc(C(C)C)c1O [Compound B6, 6-Bromo-1-(4-hydroxy-3,5-diisopropylphenyl)naphthalen-2-ol]

- MIC [1]: 8 µM (≈ 3.16 µg/mL)
- MIC [2]: 8 µM (≈ 3.16 µg/mL)
- MIC [3]: 32 µM (≈ 12.6 µg/mL)
SMILES: COC(=O)c1cc2c(-c3cc(C(C)C)c(O)c(C(C)C)c3)c(O)ccc2cc1O [Compound B10, Methyl 3,7-dihydroxy-8-(4-hydroxy-3,5-diisopropylphenyl)-2-naphthoate]
- MBC [4]: 32 µM (≈ 12.6 µg/mL)

- MIC [1]: 16 µM (≈ 6.58 µg/mL)
- MIC [2]: 8 µM (≈ 3.29 µg/mL)
- MIC [3]: 16 µM (≈ 6.58 µg/mL)
SMILES: C=CCc1cc(-c2c(O)ccc3cc(Br)ccc23)cc(C(C)(C)C)c1O [Compound B8, 1-(3-Allyl-5-(tert-butyl)-4-hydroxyphenyl)-6-bromonaphthalen-2-ol]
- bacteriostatic or bactericidal properties (regrow analysis, MIC vs MBC) ([4]; S. mutans): bactericidal
- MBC [4]: 32 µM (≈ 13.2 µg/mL)

- MIC [1]: 63 µM (≈ 22 µg/mL)
- MIC [2]: 63 µM (≈ 22 µg/mL)
- MIC [3]: 63 µM (≈ 22 µg/mL)
SMILES: CC(C)(C)c1cc(-c2c(O)ccc3ccccc23)cc(C(C)(C)C)c1O [Compound B3]

- MIC [1]: 125 µM (≈ 45.6 µg/mL)
- MIC [2]: 125 µM (≈ 45.6 µg/mL)
- MIC [3]: 125 µM (≈ 45.6 µg/mL)
SMILES: CC(C)(C)c1cc(-c2c(O)ccc3ccc(O)cc23)cc(C(C)(C)C)c1O [Compound B4, 1-(3,5-Di-tert-butyl-4-hydroxyphenol)naphthalene-2-7-diol]

- MIC [1]: 32 µM (≈ 9.8 µg/mL)
- MIC [2]: 32 µM (≈ 9.8 µg/mL)
- MIC [3]: 32 µM (≈ 9.8 µg/mL)
SMILES: Cc1cc(-c2c(O)ccc3ccccc23)cc(C(C)(C)C)c1O [Compound B9, 1-(3-(tert-Butyl)-4-hydroxy-5-methylphenyl)naphthalen-2-ol]
- MBC [4]: 32 µM (≈ 9.8 µg/mL)

- MIC [1]: > 250 µM
- MIC [2]: > 250 µM
- MIC [3]: > 250 µM
SMILES: COc1cc(-c2c(O)ccc3ccccc23)cc(OC)c1O [Compound B2, 1-(4-Hydroxy-3,5-dimethoxyphenyl)naphthalen-2-ol]

- MIC [1]: 125 µM (≈ 45.3 µg/mL)
- MIC [2]: 63 µM (≈ 22.8 µg/mL)
- MIC [3]: 125 µM (≈ 45.3 µg/mL)
SMILES: C=CCc1cc(-c2c(O)ccc3cc(OC)ccc23)cc(C(C)(C)C)c1O [Compound B7, 1-(3-Allyl-5-(tert-butyl)-4-hydroxyphenyl)-6-methoxynaphthalen-2-ol]

- MIC [1]: > 250 µM
- MIC [2]: > 250 µM
- MIC [3]: > 250 µM
SMILES: Cc1cc(-c2c(O)ccc3ccccc23)cc(C)c1O [Compound B1, 1-(4-Hydroxy-3,5-dimethylphenyl)naphthalene-2-ol]

- MIC [1]: 32 µM (≈ 17.2 µg/mL)
- MIC [2]: 16 µM (≈ 8.59 µg/mL)
- MIC [3]: 63 µM (≈ 33.8 µg/mL)
SMILES: C=CCc1cc(-c2c(O)ccc3c(-c4cc(CC=C)c(O)c(C(C)(C)C)c4)c(O)ccc23)cc(C(C)(C)C)c1O [Compound B14, 1,5-Bis(3-allyl-5-(tert-butyl)-4-hydroxyphenyl)naphthalene-2,6-diol]

- MIC [1]: > 250 µM
- MIC [2]: > 250 µM
- MIC [3]: > 250 µM
SMILES: CC(C)c1cc(-c2c(O)ccc3cc(-n4cccn4)ccc23)cc(C(C)C)c1O [Compound B13, 1-(4-Hydroxy-3,5-diisopropylphenyl)-6-(1H-pyrazol-1-yl)naphthalen-2-ol]

- MIC [1]: 250 µM (≈ 103 µg/mL)
- MIC [2]: 250 µM (≈ 103 µg/mL)
- MIC [3]: > 250 µM
SMILES: CCCc1cc(-c2c(O)ccc3cc(Br)ccc23)cc(C(C)(C)C)c1O [Compound B12, 6-Bromo-1-(3-(tert-butyl)-4-hydroxy-5-propylphenyl)naphthalen-2-ol]

The next lines start with the compound.

SMILES: CCCc1c(C)cc(C)c(-c2c(C)cc(C)c(CCC)c2O)c1O [Compound A4, 4,4’,6,6′-Tetramethyl-3,3′-dipropyl-[1,1′-diphenyl]2,2′-diol]
- MIC [1]: > 250 µM
- MIC [2]: > 250 µM
- MIC [3]: > 250 µM

SMILES: Cc1cc(-c2cc(C)c(O)c(C)c2)cc(C)c1O [Compound A3]
- MIC [1]: > 250 µM
- MIC [2]: > 250 µM
- MIC [3]: > 250 µM

SMILES: Cc1cc(-c2cc(C)c(O)c(C(C)(C)C)c2)c(C(C)C)cc1O [Compound A7]
- MBC [4]: 32 µM (≈ 10 µg/mL)
- MIC [1]: 16 µM (≈ 5 µg/mL)
- MIC [2]: 32 µM (≈ 10 µg/mL)
- MIC [3]: 32 µM (≈ 10 µg/mL)

SMILES: C=CCc1cc(-c2c(O)cc(C)c(C)c2C)cc(C(C)(C)C)c1O [Compound A6, 3′-Allyl-5′-(tert-butyl)-4,5,6-trimethyl-[1,1′-biphenyl]2,4′-diol]
- MIC [1]: > 250 µM
- MIC [2]: > 250 µM
- MIC [3]: > 250 µM

SMILES: CC(C)(C)c1ccc(CCc2cccc(O)c2)cc1O [Compound 1H-3, 2-(tert-butyl)-5-(3-hydroxyphenethyl)phenol]
- red blood cell lysis ([5]; Concentration 0.25 μM): 0.11
- red blood cell lysis ([5]; Concentration 0.5 μM): 0.00
- red blood cell lysis ([5]; Concentration 1 μM): −0.03
- red blood cell lysis ([5]; Concentration 2 μM): −0.03
- red blood cell lysis ([5]; Concentration 4 μM): −0.03
- red blood cell lysis ([5]; Concentration 8 μM): 0.29
- red blood cell lysis ([5]; Concentration 16 μM): −0.03
- red blood cell lysis ([5]; Concentration 32 μM): −0.03
- red blood cell lysis ([5]; Concentration 63 μM): 0.00
- red blood cell lysis ([5]; Concentration 125 μM): 0.46
- red blood cell lysis ([5]; Concentration 250 μM): 0.69
- red blood cell lysis [5, 6]: 0.81

SMILES: C=CCc1cc(-c2cc(C)c(O)cc2C(C)C)cc(CC=C)c1O [Compound A10, 3′,5′-Diallyl-2-isopropyl-5-methyl-[1,1′-biphenyl]-4,4′-diol]
- MIC [1]: 250 µM (≈ 80.6 µg/mL)
- MIC [2]: 250 µM (≈ 80.6 µg/mL)
- MIC [3]: > 250 µM

SMILES: COc1cccc(CCc2ccccc2O)c1 [Compound 6]
- red blood cell lysis ([5]; Concentration 0.25 μM): 0.03
- red blood cell lysis ([5]; Concentration 0.5 μM): −0.02
- red blood cell lysis ([5]; Concentration 1 μM): −0.03
- red blood cell lysis ([5]; Concentration 2 μM): −0.03
- red blood cell lysis ([5]; Concentration 4 μM): 0.35
- red blood cell lysis ([5]; Concentration 8 μM): −0.03
- red blood cell lysis ([5]; Concentration 16 μM): −0.03
- red blood cell lysis ([5]; Concentration 32 μM): −0.02
- red blood cell lysis ([5]; Concentration 63 μM): 0.07
- red blood cell lysis ([5]; Concentration 125 μM): −0.02
- red blood cell lysis ([5]; Concentration 250 μM): 0.02
- red blood cell lysis [5, 6]: 0.27

SMILES: Cc1cc(O)c(-c2cc(C(C)C)c(O)c(C(C)C)c2)c(C)c1C [Compound A9, 3′,5′-Diisopropyl-4,5,6-trimethyl-[1,1′-biphenyl]-2,4′-diol]
- MIC [1]: > 250 µM
- MIC [2]: > 250 µM
- MIC [3]: > 250 µM

SMILES: COc1cc(CCc2ccc(C(C)(C)C)c(O)c2)ccc1C(C)(C)C [Compound 1H-2, (tert-butyl)-5-(4-(tert-butyl)-3-methoxyphenethyl)phenol]
- red blood cell lysis ([5]; Concentration 0.25 μM): 0.13
- red blood cell lysis ([5]; Concentration 0.5 μM): −0.02
- red blood cell lysis ([5]; Concentration 1 μM): −0.02
- red blood cell lysis ([5]; Concentration 2 μM): −0.03
- red blood cell lysis ([5]; Concentration 4 μM): 0.16
- red blood cell lysis ([5]; Concentration 8 μM): −0.03
- red blood cell lysis ([5]; Concentration 16 μM): −0.03
- red blood cell lysis ([5]; Concentration 32 μM): −0.02
- red blood cell lysis ([5]; Concentration 63 μM): 0.02
- red blood cell lysis ([5]; Concentration 125 μM): 0.12
- red blood cell lysis ([5]; Concentration 250 μM): 0.21
- red blood cell lysis [5, 6]: 0.33

SMILES: C=CCc1c(C)cc(C)c(-c2c(C)cc(C)c(CC=C)c2O)c1O [Compound A5, 3,3′Diallyl-4,4′,6,6′-tetramethyl-[1,1′-biphenyl]-2,2′-diol]
- MIC [1]: > 250 µM
- MIC [2]: > 250 µM
- MIC [3]: > 250 µM

SMILES: Cc1c(O)c(-c2cc(C(C)(C)C)c(O)c(C(C)(C)C)c2)c(C)c(-c2cc(C(C)(C)C)c(O)c(C(C)(C)C)c2)c1O [Compound A11, 3,3″,5,5″-Tetra-tert-butyl-2′,5′-dimethyl-[1,1′:3′,1″-terphenyl]-4,4′,4″,6′-tetraol]
- MIC [1]: > 250 µM
- MIC [2]: > 250 µM
- MIC [3]: > 250 µM

SMILES: C=CCc1cc(-c2cc(C)ccc2O)cc(C(C)(C)C)c1O [Compound A8, 3′-Allyl-5′-(tert-butyl)-5-methyl-[1,1′-biphenyl]2,4′-diol]
- MIC [1]: 125 µM (≈ 37.1 µg/mL)
- MIC [2]: 125 µM (≈ 37.1 µg/mL)
- MIC [3]: > 250 µM

Reference: patent US20200375949A1, “BISPHENOL COMPOUNDS” (THE TRUSTEES OF THE UNIVERSITY OF PENNSYLVANIA, priority 2017, published 2020)
